{"source": "ChEMBL document CHEMBL1201862", "about": "“PubChem BioAssay data set” (2004)", "assay_in_all_cases": "NCI-60 cell line screen, 48 h", "key": {"ACHN": {"test_system": "ACHN"}, "LXFL 529": {"test_system": "LXFL 529"}, "M19-MEL": {"test_system": "M19-MEL"}, "BT-549": {"test_system": "BT-549"}, "Hs-578T": {"test_system": "Hs-578T"}, "MCF7": {"test_system": "MCF7"}, "NCI/ADR-RES": {"test_system": "NCI/ADR-RES"}, "RXF 631": {"test_system": "RXF 631"}}, "note": "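Exposure lasted 48 hours, with cells grown in 96-well plates and compounds tested at five concentrations. GI50 is the concentration that inhibits growth by half.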 Active and inactive are the calls of the source. No stated cut-off is given here; in the data, active = GI50 up to about 1.1 µM and inactive = higher.", "data": [{"compound": "COc1ccc(-c2c3ccccc3c(-c3ccc(OCCCCCBr)cc3)c3ccccc23)cc1", "values": [{"measurement": "GI50", "setting": "ACHN", "result": "> 100 µM (inactive)"}, {"measurement": "GI50", "setting": "LXFL 529", "result": "> 100 µM (inactive)"}, {"measurement": "GI50", "setting": "M19-MEL", "result": "> 100 µM (inactive)"}]}, {"compound": "O=C(N/N=C\\c1cccc2ccccc12)Nc1ccccc1", "values": [{"measurement": "GI50", "setting": "BT-549", "result": "> 100 µM (inactive)"}, {"measurement": "GI50", "setting": "Hs-578T", "result": "> 100 µM (inactive)"}, {"measurement": "GI50", "setting": "MCF7", "result": "> 100 µM (inactive)"}, {"measurement": "GI50", "setting": "NCI/ADR-RES", "result": "> 100 µM (inactive)"}]}, {"compound": "Cc1c2cc[n+](C)cc2c(C)c2c1[nH]c1ccccc12", "values": [{"measurement": "GI50", "setting": "M19-MEL", "result": "0.984 µM (active)"}, {"measurement": "GI50", "setting": "MCF7", "result": "3.08 µM (inactive)"}]}, {"compound": "CCCCCCCCCOCC(COP(=O)([O-])OCC[N+](C)(C)C)OC", "note": "(stereo not given)", "values": [{"measurement": "GI50", "setting": "M19-MEL", "result": "> 100 µM (inactive)"}, {"measurement": "GI50", "setting": "MCF7", "result": "68.7 µM (inactive)"}, {"measurement": "GI50", "setting": "NCI/ADR-RES", "result": "> 100 µM (inactive)"}]}, {"compound": "CC(C)NC(=O)OCc1c2c(n(C)c1COC(=O)NC(C)C)-c1ccccc1CC2", "values": [{"measurement": "GI50", "setting": "M19-MEL", "result": "9.89 µM (inactive)"}, {"measurement": "GI50", "setting": "MCF7", "result": "10.5 µM (inactive)"}, {"measurement": "GI50", "setting": "NCI/ADR-RES", "result": "15 µM (inactive)"}]}, {"compound": "O=[PH](O)c1cccs1", "values": [{"measurement": "GI50", "setting": "ACHN", "result": "> 100 µM (inactive)"}, {"measurement": "GI50", "setting": "LXFL 529", "result": "> 100 µM (inactive)"}, {"measurement": "GI50", "setting": "M19-MEL", "result": "> 100 µM (inactive)"}]}, {"compound": "O=C1N[C@@H]2C(=C[C@H](O)[C@@H](O)[C@H]2O)c2cc3c(c(O)c21)OCO3", "note": "[NARCICLASINE]", "values": [{"measurement": "GI50", "setting": "NCI/ADR-RES", "result": "0.045 µM (active)"}]}, {"compound": "NS(=O)(=O)C1CCCCC1C(=O)NNC(=O)C(=O)Nc1nnc(S)[nH]1", "note": "(stereo not given)", "values": [{"measurement": "GI50", "setting": "ACHN", "result": "> 100 µM (inactive)"}, {"measurement": "GI50", "setting": "LXFL 529", "result": "> 100 µM (inactive)"}, {"measurement": "GI50", "setting": "M19-MEL", "result": "> 100 µM (inactive)"}]}, {"compound": "CO/N=C1/c2sccc2[C@H](NC(=O)C(F)(F)F)[C@@H]1O", "values": [{"measurement": "GI50", "setting": "BT-549", "result": "> 100 µM (inactive)"}, {"measurement": "GI50", "setting": "Hs-578T", "result": "> 100 µM (inactive)"}, {"measurement": "GI50", "setting": "MCF7", "result": "> 100 µM (inactive)"}, {"measurement": "GI50", "setting": "NCI/ADR-RES", "result": "> 100 µM (inactive)"}]}, {"compound": "CCCOC1OC(CS(=O)(=O)O)C(OC(C)=O)C(OC(C)=O)C1OC(C)=O", "note": "(stereo not given)", "values": [{"measurement": "GI50", "setting": "BT-549", "result": "> 100 µM (inactive)"}, {"measurement": "GI50", "setting": "Hs-578T", "result": "> 100 µM (inactive)"}, {"measurement": "GI50", "setting": "MCF7", "result": "> 100 µM (inactive)"}, {"measurement": "GI50", "setting": "NCI/ADR-RES", "result": "> 100 µM (inactive)"}]}, {"compound": "COC(=O)Cc1c(-c2c(CC(=O)OC)c3ccccc3n2C2OC(COC(C)=O)C(OC(C)=O)C(OC(C)=O)C2OC(C)=O)[nH]c2ccccc12", "note": "(stereo not given)", "values": [{"measurement": "GI50", "setting": "BT-549", "result": "> 100 µM (inactive)"}]}, {"compound": "CC(=O)CC(=O)CCC(=O)O", "note": "[SUCCINYLACETONE]", "values": [{"measurement": "GI50", "setting": "ACHN", "result": "> 100 µM (inactive)"}, {"measurement": "GI50", "setting": "M19-MEL", "result": "> 100 µM (inactive)"}]}, {"compound": "Oc1ccc(/C=C/c2cc(O)cc(O)c2)cc1", "note": "[RESVERATROL]", "values": [{"measurement": "GI50", "setting": "ACHN", "result": "27 µM (inactive)"}, {"measurement": "GI50", "setting": "BT-549", "result": "> 100 µM (inactive)"}, {"measurement": "GI50", "setting": "MCF7", "result": "67 µM (inactive)"}, {"measurement": "GI50", "setting": "NCI/ADR-RES", "result": "19.6 µM (inactive)"}]}, {"compound": "Cc1ccc2c(=O)c3ccccc3sc2c1", "values": [{"measurement": "GI50", "setting": "ACHN", "result": "> 100 µM (inactive)"}, {"measurement": "GI50", "setting": "LXFL 529", "result": "> 100 µM (inactive)"}, {"measurement": "GI50", "setting": "M19-MEL", "result": "> 100 µM (inactive)"}]}, {"compound": "CCCCCCc1ccc(O)cc1O", "note": "[HEXYLRESORCINOL]", "values": [{"measurement": "GI50", "setting": "M19-MEL", "result": "42.8 µM (inactive)"}, {"measurement": "GI50", "setting": "MCF7", "result": "81.1 µM (inactive)"}, {"measurement": "GI50", "setting": "NCI/ADR-RES", "result": "38.4 µM (inactive)"}]}, {"compound": "CCCCCCCCCCCCCCCC(=O)OC1C(O)C(CO)OC(OC)C1NC(=O)N(CCCl)N=O", "note": "(stereo not given)", "values": [{"measurement": "GI50", "setting": "ACHN", "result": "8.81 µM (inactive)"}, {"measurement": "GI50", "setting": "LXFL 529", "result": "12.6 µM (inactive)"}, {"measurement": "GI50", "setting": "M19-MEL", "result": "15.9 µM (inactive)"}, {"measurement": "GI50", "setting": "RXF 631", "result": "16.8 µM (inactive)"}]}, {"compound": "COc1ccc(N2CN(C)CSC2=S)cc1", "values": [{"measurement": "GI50", "setting": "ACHN", "result": "> 100 µM (inactive)"}, {"measurement": "GI50", "setting": "BT-549", "result": "75.5 µM (inactive)"}, {"measurement": "GI50", "setting": "Hs-578T", "result": "> 100 µM (inactive)"}, {"measurement": "GI50", "setting": "MCF7", "result": "89.7 µM (inactive)"}, {"measurement": "GI50", "setting": "NCI/ADR-RES", "result": "> 100 µM (inactive)"}]}, {"compound": "Cc1ccc(S(=O)(=O)NCCCSCCSCCCN)cc1", "values": [{"measurement": "GI50", "setting": "ACHN", "result": "> 100 µM (inactive)"}, {"measurement": "GI50", "setting": "Hs-578T", "result": "> 100 µM (inactive)"}, {"measurement": "GI50", "setting": "MCF7", "result": "> 100 µM (inactive)"}, {"measurement": "GI50", "setting": "NCI/ADR-RES", "result": "> 100 µM (inactive)"}]}, {"compound": "C=CCn1c(=O)c(Br)nn(CCOCP(=O)(OCC)OCC)c1=O", "values": [{"measurement": "GI50", "setting": "ACHN", "result": "> 100 µM (inactive)"}, {"measurement": "GI50", "setting": "Hs-578T", "result": "> 100 µM (inactive)"}, {"measurement": "GI50", "setting": "MCF7", "result": "> 100 µM (inactive)"}, {"measurement": "GI50", "setting": "NCI/ADR-RES", "result": "> 100 µM (inactive)"}]}]}
